Measured values published in patent US20110318403A1, “Preparation and Use of Pouteria Lucuma Extract” (priority 2008, published 2011).

Legend:
[1] = system: Human neonatal fibroblasts; assay: scratched fibroblast assay (wound closure of monolayer); format: cell-based; conditions: equivalent concentrations of pure FAs (LA 24 μg/mL, OA 18 μg/mL), 24 hours
Procedure: Human neonatal fibroblasts were maintained in Dulbecco's Modified Eagle Medium (D-MEM)+10% fetal bovine serum (FBS) and were kept in a humidified 37° C. incubator with 5% CO2. Cells were plated at a density of 1×10^4 cells per well in a 24-well plate and incubated for 24 hours, or until 100% confluency was reached. Each monolayer was wounded by dragging a pipette tip across the bottom of the well, using a straight edge as a guide (approximately 1.3 mm in width). The media was removed and cells were washed with 500 μL PBS twice to remove detached cells or cell debris. The cells were treated as follows: DMEM+10% FBS+vehicle (0.06% glycerol, positive control), DMEM+vehicle (0.06% glycerol, negative control), DMEM+vehicle (0.06% glycerol)+LNO (60 μg/mL), DMEM+vehicle (0.06% glycerol)+LA (24 μg/mL) and DMEM+vehicle (0.06% glycerol)+OA (18 μg/mL). Photos were taken of each well to measure the initial area of the wound. After 24 hours incubation, wells were photographed again. The scratched area was measured using […] Photoshop CS software, and percentage of wound closure at each time point was derived by the following formula: (1−[current wound size/initial wound size])×100.

[2] = system: transgenic zebrafish larvae tail fin (GFP-positive endothelial cells); assay: zebrafish larvae tailfin primordia amputation regeneration / angiogenesis assay; format: in vivo; conditions: 48 hours after amputation
Source text: A tailfin model of in vivo wound healing and regeneration was also used to assess the ability of a lucuma nut oil extract to promote appropriate wound healing, and the results of these assays also provided information on the angiogenic properties of LNO. In this transgenic model, the fli1 promoter drives expression of green fluorescent protein (GFP) in all the vascular endothelial cells, which allows tracking of wound healing in real time by direct observation of angiogenesis. Forty-eight-hour-old or five-day-old zebrafish larvae (AB strain) were anesthetized in 0.04% 3-amino benzoic acid ethylester (tricaine; MS-222) and placed in 2% agar Petri dishes. Surgical blades were used to amputate tailfin primordia just posterior to the notochord. Larvae were placed in 24-well plates containing either water (control), CGS-21680 (50 μg/mL; CAS120225-54-9) or LNO (10-100 μg/mL in water) and incubated at 28° C. Primordia re-growth was measured using fluorescence microscopy and image analysis of fluorescent endothelial cells. For this assay, the fin fluorescent area was normalized against the total fin area. […] The effects of LNO were analyzed and compared to the positive control CGS-21680 (2-p-(2-Carboxyethyl)phenethylamino-5′-N-ethylcarboxamidoadenosine). […]

[3] = system: dermal wounds of CD-1 mice; assay: CD-1 mouse excision wound healing assay; format: in vivo; conditions: topical once daily, 10 μg/mouse, CT50 ± SE
Procedure: The LNO extract of Example 1 was further used in two in vivo models to assess wound healing and regeneration. […] In this experiment, a 12 mm skin punch was used to create a wound in mice and the mice were then divided into three groups, i.e., a negative control group, an experimental group and a positive control group. Immediately following wounding, the wounds were treated for ten days with either vehicle (0.5% carboxymethylcellulose in PBS), lucuma nut oil (LNO) (200 μg/mouse) in vehicle, or the positive control CGS-21680 (CAS120225-54-9, a specific adenosine A2A receptor agonist offered commercially by Tocris; see U.S. Pat. No. 4,968,697), also in vehicle. […] Wound healing assays were performed by MDS Pharma Services, Taiwan, MDSPS Testing Code 1115924, according to the protocol describe elsewhere (Kapoor, et al., J. Clin. Invest., 118:3279-3290 (2008); Montesinos, et al., J. Exp. Med., 186:1615-1620 (1997), each description incorporated herein by reference). Briefly, groups of 5 male CD-1 mice weighing 22±2 g were used for this assay. […] The wounded area was traced onto clear plastic sheets on days 3, 5, 7, 9 and 11 and quantitated by using an Image Analyzer (Life Science Resources VISTA, Version 30). […]

Question: Which results are given for `CCCCCCCC/C=C\CCCCCCCC(=O)O` [OA, oleic acid]?
Answer: cell migration in scratched fibroblasts compared with LNO 60 μg/mL [1]: not able to reproduce the effect of LNO in cell migration; GFP-positive endothelial cells in regenerating tail fin (angiogenesis) [2]: not found

Question: For `CCCCC/C=C\C/C=C\CCCCCCCC(=O)O` [LA, linoleic acid], which “cell migration in scratched fibroblasts compared with LNO 60 μg/mL” value [1] is on record?
Answer: Its value is “not able to reproduce the effect of LNO in cell migration”.

Question: And the “GFP-positive endothelial cells in regenerating tail fin (angiogenesis)” value [2]?
Answer: Its value is “not found”.

Question: Which “Dermal wound closure expressed as half-closure time (CT50)” value [3] does the source give for `CCNC(=O)[C@H]1O[C@@H](n2cnc3c(N)nc(NCCc4ccc(CCC(=O)O)cc4)nc32)[C@H](O)[C@@H]1O` [CGS, 2-p-(2-Carboxyethyl)phenethylamino-5′-N-ethylcarboxamidoadenosine] here?
Answer: The value was 6.04 ± 0.2 days.
